Test results from the NIST ThermoML archive (doi:10.1021/je700411p).
Numbers after ± are expanded uncertainties.

Assays:
[1] = Liquid; for mass density: 298.15 K, 101.33 kPa
[2] = refractive index (Na D-line) (dimensionless); details: 298.15 K; 101.33 kPa; Liquid; Standard Abbe refractometry

CC(=O)O [acetic acid]
mass density [1]: 1043.9 ± 0.15 kg/m3
vapor or sublimation pressure ([1]; 328.56 K, Ebulliometric method (Recirculating still)): 9.98 ± 0.2 kPa
vapor or sublimation pressure ([1]; 330.65 K, Ebulliometric method (Recirculating still)): 10.97 ± 0.2 kPa
vapor or sublimation pressure ([1]; 332.65 K, Ebulliometric method (Recirculating still)): 11.98 ± 0.2 kPa
vapor or sublimation pressure ([1]; 336.23 K, Ebulliometric method (Recirculating still)): 13.97 ± 0.2 kPa
vapor or sublimation pressure ([1]; 339.41 K, Ebulliometric method (Recirculating still)): 15.97 ± 0.2 kPa
vapor or sublimation pressure ([1]; 342.25 K, Ebulliometric method (Recirculating still)): 17.98 ± 0.2 kPa
vapor or sublimation pressure ([1]; 344.81 K, Ebulliometric method (Recirculating still)): 19.98 ± 0.2 kPa
vapor or sublimation pressure ([1]; 347.19 K, Ebulliometric method (Recirculating still)): 21.98 ± 0.2 kPa
vapor or sublimation pressure ([1]; 349.4 K, Ebulliometric method (Recirculating still)): 23.98 ± 0.2 kPa
vapor or sublimation pressure ([1]; 352.43 K, Ebulliometric method (Recirculating still)): 26.97 ± 0.2 kPa
vapor or sublimation pressure ([1]; 355.18 K, Ebulliometric method (Recirculating still)): 29.96 ± 0.2 kPa
vapor or sublimation pressure ([1]; 357.72 K, Ebulliometric method (Recirculating still)): 32.98 ± 0.2 kPa
vapor or sublimation pressure ([1]; 360.09 K, Ebulliometric method (Recirculating still)): 35.94 ± 0.2 kPa
vapor or sublimation pressure ([1]; 362.26 K, Ebulliometric method (Recirculating still)): 38.96 ± 0.2 kPa
vapor or sublimation pressure ([1]; 365 K, Ebulliometric method (Recirculating still)): 42.93 ± 0.2 kPa
vapor or sublimation pressure ([1]; 366.3 K, Ebulliometric method (Recirculating still)): 44.95 ± 0.2 kPa
vapor or sublimation pressure ([1]; 369.3 K, Ebulliometric method (Recirculating still)): 49.94 ± 0.2 kPa
vapor or sublimation pressure ([1]; 372.09 K, Ebulliometric method (Recirculating still)): 54.93 ± 0.2 kPa
vapor or sublimation pressure ([1]; 374.63 K, Ebulliometric method (Recirculating still)): 59.83 ± 0.2 kPa
vapor or sublimation pressure ([1]; 377.03 K, Ebulliometric method (Recirculating still)): 64.87 ± 0.21 kPa
vapor or sublimation pressure ([1]; 379.25 K, Ebulliometric method (Recirculating still)): 69.84 ± 0.21 kPa
vapor or sublimation pressure ([1]; 381.39 K, Ebulliometric method (Recirculating still)): 74.82 ± 0.21 kPa
vapor or sublimation pressure ([1]; 383.35 K, Ebulliometric method (Recirculating still)): 79.71 ± 0.21 kPa
vapor or sublimation pressure ([1]; 385.23 K, Ebulliometric method (Recirculating still)): 84.52 ± 0.21 kPa
vapor or sublimation pressure ([1]; 387.1 K, Ebulliometric method (Recirculating still)): 89.81 ± 0.21 kPa
vapor or sublimation pressure ([1]; 388.77 K, Ebulliometric method (Recirculating still)): 94.52 ± 0.21 kPa
vapor or sublimation pressure ([1]; 390.91 K, Ebulliometric method (Recirculating still)): 101.3 ± 0.21 kPa
refractive index [2]: 1.3696 ± 0.0007

CCCCO [butan-1-ol]
mass density [1]: 805.6 ± 0.29 kg/m3
vapor or sublimation pressure ([1]; 390.46 K): 101.3 kPa
refractive index [2]: 1.396 ± 0.0007

CCCCOC(C)=O [butyl ethanoate]
mass density [1]: 876.02 ± 0.41 kg/m3
vapor or sublimation pressure ([1]; 334.36 K, Ebulliometric method (Recirculating still)): 9.99 ± 0.2 kPa
vapor or sublimation pressure ([1]; 336.53 K, Ebulliometric method (Recirculating still)): 10.98 ± 0.2 kPa
vapor or sublimation pressure ([1]; 338.56 K, Ebulliometric method (Recirculating still)): 11.99 ± 0.2 kPa
vapor or sublimation pressure ([1]; 342.2 K, Ebulliometric method (Recirculating still)): 13.97 ± 0.2 kPa
vapor or sublimation pressure ([1]; 345.47 K, Ebulliometric method (Recirculating still)): 15.99 ± 0.2 kPa
vapor or sublimation pressure ([1]; 348.37 K, Ebulliometric method (Recirculating still)): 17.97 ± 0.2 kPa
vapor or sublimation pressure ([1]; 351.02 K, Ebulliometric method (Recirculating still)): 19.98 ± 0.2 kPa
vapor or sublimation pressure ([1]; 353.45 K, Ebulliometric method (Recirculating still)): 21.97 ± 0.2 kPa
vapor or sublimation pressure ([1]; 355.72 K, Ebulliometric method (Recirculating still)): 23.97 ± 0.2 kPa
vapor or sublimation pressure ([1]; 357.84 K, Ebulliometric method (Recirculating still)): 25.98 ± 0.2 kPa
vapor or sublimation pressure ([1]; 359.79 K, Ebulliometric method (Recirculating still)): 27.92 ± 0.2 kPa
vapor or sublimation pressure ([1]; 362.58 K, Ebulliometric method (Recirculating still)): 30.98 ± 0.2 kPa
vapor or sublimation pressure ([1]; 365.1 K, Ebulliometric method (Recirculating still)): 33.92 ± 0.2 kPa
vapor or sublimation pressure ([1]; 367.5 K, Ebulliometric method (Recirculating still)): 36.96 ± 0.21 kPa
vapor or sublimation pressure ([1]; 369.74 K, Ebulliometric method (Recirculating still)): 39.97 ± 0.21 kPa
vapor or sublimation pressure ([1]; 373.18 K, Ebulliometric method (Recirculating still)): 44.92 ± 0.21 kPa
vapor or sublimation pressure ([1]; 376.31 K, Ebulliometric method (Recirculating still)): 49.9 ± 0.21 kPa
vapor or sublimation pressure ([1]; 379.18 K, Ebulliometric method (Recirculating still)): 54.92 ± 0.21 kPa
vapor or sublimation pressure ([1]; 381.89 K, Ebulliometric method (Recirculating still)): 59.93 ± 0.21 kPa
vapor or sublimation pressure ([1]; 384.4 K, Ebulliometric method (Recirculating still)): 64.95 ± 0.21 kPa
vapor or sublimation pressure ([1]; 386.74 K, Ebulliometric method (Recirculating still)): 69.92 ± 0.22 kPa
vapor or sublimation pressure ([1]; 388.96 K, Ebulliometric method (Recirculating still)): 74.95 ± 0.22 kPa
vapor or sublimation pressure ([1]; 391.05 K, Ebulliometric method (Recirculating still)): 79.91 ± 0.22 kPa
vapor or sublimation pressure ([1]; 393.02 K, Ebulliometric method (Recirculating still)): 84.83 ± 0.22 kPa
vapor or sublimation pressure ([1]; 394.94 K, Ebulliometric method (Recirculating still)): 89.87 ± 0.23 kPa
vapor or sublimation pressure ([1]; 396.72 K, Ebulliometric method (Recirculating still)): 94.73 ± 0.23 kPa
vapor or sublimation pressure ([1]; 399.05 K, Ebulliometric method (Recirculating still)): 101.3 ± 0.23 kPa
refractive index [2]: 1.3916 ± 0.0008
